Source: US10058577B2, “Thermo-stable strains, products and methods thereof” (TRIPHASE PHARMACEUTICALS PVT. LTD., priority 2014, dated 2018)

Assays:
[1] = system: Lactobacillus plantarum TSP-Lp1; experiment: Antibiotic susceptibility by disk diffusion method; assay type: cell-based; conditions: for zone of inhibition at 30 µg/disc: TSPLP1, 30 μg; for zone of inhibition at 10 µg/disc: TSPLP1, 10 μg; for zone of inhibition at 5 µg/disc: TSPLP1, 5 μg
Description: (§1) In order to ascertain the sensitivity of the thermostable strains in the food products towards antibiotics, Antibiotic susceptibility profile for Lactobacillus acidophilus is created by disk diffusion method. The susceptibility criteria used is established by Charteris et al. The Lactobacillus acidophilus is grown in Man Rogosa Sharpe Agar (MRSA).
The same set of study as the previous example is conducted using Lactobacillus plantarum strain of the present disclosure and the results for the study are depicted in Table No. 13 as below. The susceptibility criteria used is established by Charteris et al. The Lactobacillus acidophilus is grown in Man Rogosa Sharpe Agar, […]

[2] = system: Lactobacillus acidophilus TSP-La1; experiment: Antibiotic susceptibility by disk diffusion method; assay type: cell-based; conditions: for zone of inhibition at 30 µg/disc: TSPLA1, 30 μg; for zone of inhibition at 10 µg/disc: TSPLA1, 10 μg; for zone of inhibition at 5 µg/disc: TSPLA1, 5 μg
Description: as §1
67.15 grams is suspended in 1000 ml distilled water and heated to boiling to dissolve the medium completely. It is sterilized by autoclaving at 15 lbs pressure (121° C.) for 20 minutes, mixed well and poured into sterile Petri plates.
The concentration of the tested antibiotics has been included depending upon their minimum inhibitory concentrations.

[3] = Lactiplantibacillus plantarum, read-out: MIC Results
[4] = Lactobacillus acidophilus, read-out: MIC Results

## CC1(C)S[C@@H]2[C@H](NC(=O)[C@H](N)c3ccc(O)cc3)C(=O)N2[C@H]1C(=O)O [Amoxicillin]
[1]; 30 μg
  Resistant/Sensitive: Sensitive
[1]; [3]
  zone of inhibition at 30 µg/disc: 39 mm
[2]; 30 μg
  Resistant/Sensitive: Sensitive
[2]; [4]
  zone of inhibition at 30 µg/disc: 32 mm

## CC1(C)S[C@@H]2[C@H](NC(=O)[C@H](N)c3ccccc3)C(=O)N2[C@H]1C(=O)O [Ampicillin]
[1]; 10 μg
  MIC Results: No Zone
  Resistant/Sensitive: Resistant
[2]; 10 μg
  Resistant/Sensitive: Resistant
[2]; [4]
  zone of inhibition at 10 µg/disc: 10 mm

## CC(=O)OCC1=C(C(=O)O)N2C(=O)[C@@H](NC(=O)Cc3cccs3)[C@H]2SC1 [Cephalothin]
[1]; 30 μg
  Resistant/Sensitive: Sensitive
[1]; [3]
  zone of inhibition at 30 µg/disc: 23 mm
[2]; 30 μg
  Resistant/Sensitive: Sensitive
[2]; [4]
  zone of inhibition at 30 µg/disc: 25 mm

## O=C(N[C@H](CO)[C@H](O)c1ccc([N+](=O)[O-])cc1)C(Cl)Cl [Chloramphenicol]
[1]; 30 μg
  Resistant/Sensitive: Sensitive
[1]; [3]
  zone of inhibition at 30 µg/disc: 31 mm
[2]; 30 μg
  Resistant/Sensitive: Sensitive
[2]; [4]
  zone of inhibition at 30 µg/disc: 29 mm

## O=C(O)c1cn(C2CC2)c2cc(N3CCNCC3)c(F)cc2c1=O [Ciprofloxacin]
[1]; 10 μg
  Resistant/Sensitive: Sensitive
[1]; [3]
  zone of inhibition at 10 µg/disc: 31 mm

## CCC[C@@H]1C[C@@H](C(=O)N[C@@H]([C@H]2O[C@H](SC)[C@H](O)[C@@H](O)[C@H]2O)[C@H](C)Cl)N(C)C1 [Clindamycin]
[1]; Lactiplantibacillus plantarum, TSPLP1, 2 μg, read-out: MIC Results
  zone of inhibition at 2 µg/disc: 34 mm
[2]; Lactobacillus acidophilus, TSPLA1, 2 μg, read-out: MIC Results
  zone of inhibition at 2 µg/disc: 31 mm

## CC[C@H]1OC(=O)[C@H](C)[C@@H](O[C@H]2C[C@@](C)(OC)[C@@H](O)[C@H](C)O2)[C@H](C)[C@@H](O[C@@H]2O[C@H](C)C[C@H](N(C)C)[C@H]2O)[C@](C)(O)C[C@@H](C)C(=O)[C@H](C)[C@@H](O)[C@]1(C)O [Erythromycin]
[1]; 15 μg
  Resistant/Sensitive: Sensitive
[1]; Lactiplantibacillus plantarum, TSPLP1, 15 μg, read-out: MIC Results
  zone of inhibition at 15 µg/disc: 14 mm
[2]; 15 μg
  Resistant/Sensitive: Resistant
[2]; Lactobacillus acidophilus, TSPLA1, 15 μg, read-out: MIC Results
  zone of inhibition at 15 µg/disc: 14 mm

## COc1cccc(OC)c1C(=O)N[C@@H]1C(=O)N2[C@@H]1SC(C)(C)[C@@H]2C(=O)O [Methicillin]
[1]; 5 μg
  Resistant/Sensitive: Sensitive
[1]; [3]
  zone of inhibition at 5 µg/disc: 15 mm
[2]; 5 μg
  Resistant/Sensitive: Sensitive
[2]; [4]
  zone of inhibition at 5 µg/disc: 30 mm

## Cc1onc(-c2ccccc2)c1C(=O)N[C@@H]1C(=O)N2[C@@H]1SC(C)(C)[C@@H]2C(=O)O [Oxacillin]
[1]; 1 μg
  MIC Results: No Zone
  Resistant/Sensitive: Resistant
[2]; 1 μg
  MIC Results: No Zone
  Resistant/Sensitive: Resistant

## CO[C@H]1/C=C/O[C@@]2(C)Oc3c(C)c(O)c4c(O)c(c(/C=N/N5CCN(C)CC5)c(O)c4c3C2=O)NC(=O)/C(C)=C\C=C\[C@H](C)[C@H](O)[C@@H](C)[C@@H](O)[C@@H](C)[C@H](OC(C)=O)[C@@H]1C [Rifampicin]
[1]; [3]
  zone of inhibition at 5 µg/disc: 43 mm
[2]; [4]
  zone of inhibition at 5 µg/disc: 35 mm

## [H]/N=C(/N)N[C@H]1[C@H](O)[C@@H](O)[C@H](O[C@@H]2O[C@@H](C)[C@](O)(C=O)[C@H]2O[C@@H]2O[C@@H](CO)[C@H](O)[C@@H](O)[C@@H]2NC)[C@@H](N/C(N)=N\[H])[C@@H]1O [Streptomycin]
[1]; 10 μg
  Resistant/Sensitive: Sensitive
[1]; [3]
  zone of inhibition at 10 µg/disc: 20 mm
[2]; 10 μg
  Resistant/Sensitive: Sensitive
[2]; [4]
  zone of inhibition at 10 µg/disc: 18 mm

## CN(C)[C@@H]1C(O)=C(C(N)=O)C(=O)[C@@]2(O)C(O)=C3C(=O)c4c(O)cccc4[C@@](C)(O)[C@H]3C[C@@H]12 [Tetracycline]
[1]; [3]
  zone of inhibition at 30 µg/disc: 14 mm
[2]; [4]
  zone of inhibition at 30 µg/disc: 11 mm

## CN[C@H](CC(C)C)C(=O)N[C@H]1C(=O)N[C@@H](CC(N)=O)C(=O)N[C@H]2C(=O)N[C@H]3C(=O)N[C@H](C(=O)N[C@H](C(=O)O)c4cc(O)cc(O)c4-c4cc3ccc4O)[C@H](O)c3ccc(c(Cl)c3)Oc3cc2cc(c3O[C@@H]2O[C@H](CO)[C@@H](O)[C@H](O)[C@H]2O[C@H]2C[C@](C)(N)[C@H](O)[C@H](C)O2)Oc2ccc(cc2Cl)[C@H]1O [Vancomycin]
[1]; 30 μg
  MIC Results: No Zone
  Resistant/Sensitive: Resistant
[2]; 30 μg
  MIC Results: No Zone
  Resistant/Sensitive: Resistant

## Gentamycin
[1]; 10 μg
  MIC Results: 8 mm
  Resistant/Sensitive: Resistant
[2]; 10 μg
  MIC Results: 10 mm
  Resistant/Sensitive: Resistant
